The values that follow come from patent US20090069324A1, “CHEMICAL INHIBITORS OF BFL-1 AND RELATED METHODS” (The Burnham Institute, priority 2007, published 2009).

pIC50: −log10 of the molar value.

One series deals with T1, Bfl-1 (Homo sapiens, UniProt Q16548).
T1 construct: lacking their C-terminal transmembrane domains (approximately last 20 amino-acids); made in house; host or cells: XL-1 Blue cells (E. coli), pGEX 4T-1
T1 sequence (Q16548 1-155 limits assumed): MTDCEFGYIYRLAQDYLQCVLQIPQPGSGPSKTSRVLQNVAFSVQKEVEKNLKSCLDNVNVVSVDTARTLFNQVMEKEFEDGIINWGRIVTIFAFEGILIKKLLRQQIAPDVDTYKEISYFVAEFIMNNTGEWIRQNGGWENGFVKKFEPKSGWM
Kind of series: Bfl-1 TR-FRET assay (FITC-Bid, Tb-anti-GST antibody). To be noted: Tables 3-5; read-out: Bfl-1 TR FRET IC50. The format is binding. As to the method:
TR-FRET assay. For confirmation of FPA results, a TR-FRET assay utilizing terbium- (Tb-) labeled anti-GST antibody (Th-Ab) was developed. […] The reaction mixture was preincubated for 1 h, and TR-fluorescence (TRF) was measured on an M5 plate reader (Molecular Devices) using excitation at 340 nm and emission at […]. The measurements were averaged from 5 readings during 1 ms after an initial delay 0.1 ms. TR-FRET signal was calculated as the ratio of TR-Fluorescence at 520 nm to TR-Fluorescence at […].
For Bfl-1 TR-FRET assays, Bfl-1 protein and FITC-Bid peptide (FITC-Ahx-[…]) (SEQ ID NO: 1) were utilized. Terbium-anti-GST antibody (Tb-anti-GST Ab) was obtained from Invitrogen (San Diego Calif.). The assay buffer contained 25 mM Bis-Tris, pH 7.0, 1 mM TCEP, and 0.005% Tween 20. The Tb-Ab buffer contained 2.5 nM Tb-anti-GST antibody in assay buffer. The Bfl-1/Th-Ab working solution contained 5 nM Bfl-1 in Th-Ab assay buffer. The solution was prepared fresh and kept on ice prior to use. The FITC-Bid working solution contained 5.6 nM FITC-Bid in assay buffer.
For the Bfl-1 TR-FRET dose-response screening protocol, dose-response curves contained 10 concentrations of compounds obtained using 2-fold serial dilution. Compounds were serially diluted in 100% DMSO, and then diluted with water to 10% final DMSO concentration. A 4 μl aliquot of compounds in 10% DMSO was transferred into columns 3-22 of Greiner 384-well white small-volume plates. Columns 1-2 and 23-24 contained 4 μL of 10% DMSO.
Columns 1-2 were reserved for positive controls, and 8 μL of Th-Ab buffer was added using a WellMate bulk dispenser (Matrix). An aliquot of 8 μL of Bfl-1/Th-Ab working solution was added to columns 3-24 of Greiner 384 well white plates using a WellMate bulk dispenser (Matrix). Columns 23-24 represented negative control wells. Plates were incubated for 1 h at 4° C. An 8 μL aliquot of freshly prepared FITC-Bid working solution was added to the whole plate using WellMate bulk dispenser (Matrix). Plates were incubated for 4 h at room temperature protected from direct light. Fluorescence was measured on the M5 plate reader (excitation: 340 nm, emission: 490 and 520 nm, cutoff: 475 and 515 nm, respectively) in Time Resolved (TR) mode with signal integrated for 1 ms after initial delay of 0.1 ms. TR-FRET signal was calculated as the ratio of TR-Fluorescence at 520 nm to TR-Fluorescence at 490 nm. Data analysis was performed using a sigmoidal dose-response equation through non-linear regression.

Another series in a line: Plasma stability. The class given is in vitro ADME. To be noted: fresh rat plasma, 37.5° C. The procedure: CID-779754 (MLS-0067130) has a metabolic half life of >60 min in the presence of rat liver microsomes when incubated at 37.5° C. (FIG. 6A), with 64% of the compound remaining at 1 hour. The plasma stability of CID-779754 is also good, with 79% remaining after incubating at 37.5° C. for 1 hour in fresh rat plasma (FIG. 6B).

In series [1] the test system is cord blood derived human mast cells (CBMCs). Kind of series: LDH release cytotoxicity assay. The class given is cell-based. The procedure: To investigate whether a Bfl-1 inhibitor is cytotoxic to cord blood derived human mast cells (CBMCs), a […] assay based on the measurement of lactate dehydrogenase (LDH) activity is used. CBMC are cultured with various concentrations of the Bfl-1 inhibitor, and LDH release into the culture supernatant is measured. […] The positive control in FIG. 8 is a control included in the LDH kit. Thus, CID-779754 is not cytotoxic to in vitro developed human mast cells.
Background: LDH leaks from cells whose membrane has failed.

Regarding `CN(C)C1=C(Cl)C(=O)N(c2ccc(Cl)c(Cl)c2)C1=O` [CID-779754, 3-chloro-1-(3,4-dichlorophenyl)-4-(dimethylamino)-1H-pyrrole-2,5-dione], the pIC50 on Bfl-1 was 6.24. Moreover, the “remaining after incubating for 1 hour” value in “Plasma stability” was found to be 79%. For the same compound, the “cytotoxicity (LDH release)” value in series [1] (0.1-100 μM, n=4 donors) is “no cytoxicity”. Also, in series [1] (normal human cells), the “toxicity to normal human cells” value is given as “not toxic to normal human cells”.

A word on the pIC50: it is the IC50 on a negative log10 scale, so that one unit is a factor of ten.
